Measured values as given in patent publication US7598244B2, “[1,2,4]triazolo[1,5,a]pyrimidin-2-ylurea derivative and use thereof” (Nippon Kayaku Kabushiki Kaisha, priority 2003, dated 2009).

Test system: MHC class I molecules of T1 cells (human lymphoma cell line 174×CEM.)
Test: Effect on expression of MHC class I from T1 cells (flow cytometry, MFI)
Format: cell-based
Settings: 3 days culture
Protocol: Effect on Expression of MHC Class I from T1 Cells (Human Lymphoma Cell Line 174×CEM.)
Using a 96-well flat bottom microplate, T1 cells (5.7×10^3 cells/200 μl/well) were cultured in an RPMI 1640 medium (Iwaki Glass) containing 10% fetal bovine serum (hereinafter abbreviated as FBS; Iruvine Scientific) in an incubator containing 5% carbon dioxide at 37° C. for 3 days, in the presence of a test compound having each concentration obtained by dilution at a common ratio route of 10 from 400 μM. After completion of the culture, the cells were stained with fluoroisothiocyanate-labeled mouse anti-human MHC class I monoclonal antibody (an antibody produced from the cell line W6/32 (ATCC No. CRL 1991)). The mean fluorescence intensity of the stained cells (hereinafter referred to as MFI) was measured using flow cytometry FACScan (BD). The obtained value was defined as an expression level of MHC class I molecules. A test compound concentration necessary for suppressing 20% of the expression level of MHC class I molecules (EC20 value) was calculated using the following formula (1).
[formula] • Eexp: MFI of cultured cells containing test compound after being stained with antibody • Cexp: MFI of cultured cells containing no test compounds after being stained with antibody

| SMILES | EC20 (concentration necessary for suppressing 20% of the expression level of MHC class I molecules) |
| --- | --- |
| COc1ccc(-c2ccnc3nc(NC(=O)N[C@H](C(=O)NCc4ccccc4)C(C)C)nn23)cc1 [Example 089] | 210 nM |
| CCNC(=O)[C@@H](NC(=O)Nc1nc2nccc(-c3ccc(OC)cc3)n2n1)C(C)C [Example 090] | 400 nM |
| CCCCNC(=O)[C@@H](NC(=O)Nc1nc2nccc(-c3ccc(OC)cc3)n2n1)C(C)C [Example 091] | 210 nM |
| COc1ccc(-c2ccnc3nc(NC(=O)N[C@H](C(=O)NCC4CCCCC4)C(C)C)nn23)cc1 [Example 092] | 200 nM |
| COc1ccc(-c2ccnc3nc(NC(=O)N[C@H](C(=O)N(C)Cc4ccccc4)C(C)C)nn23)cc1 [Example 093] | 700 nM |
| COc1ccc(-c2ccnc3nc(NC(=O)N[C@H](C(=O)NC4CCCCC4)C(C)C)nn23)cc1 [Example 094] | 200 nM |
| COCCCNC(=O)[C@@H](NC(=O)Nc1nc2nccc(-c3ccc(OC)cc3)n2n1)C(C)C [Example 095] | 630 nM |
| COCCNC(=O)[C@@H](NC(=O)Nc1nc2nccc(-c3ccc(OC)cc3)n2n1)C(C)C [Example 096] | 550 nM |
| COCCN(CCOC)C(=O)[C@@H](NC(=O)Nc1nc2nccc(-c3ccc(OC)cc3)n2n1)C(C)C [Example 097] | 470 nM |
| COC(=O)[C@H](C)NC(=O)[C@@H](NC(=O)Nc1nc2nccc(-c3ccc(OC)cc3)n2n1)C(C)C [Example 098] | 140 nM |
| COc1ccc(-c2ccnc3nc(NC(=O)NCC4CCCCC4)nn23)cc1 [Example 099] | 440 nM |
| CCC(C)NC(=O)Nc1nc2nccc(-c3ccc(OC)cc3)n2n1 (stereo not drawn) [Example 100] | 320 nM |
| COc1ccc(-c2ccnc3nc(NC(=O)NCCCc4ccccc4)nn23)cc1 [Example 102] | 190 nM |
| COc1ccc(-c2ccnc3nc(NC(=O)NCc4ccncc4)nn23)cc1 [Example 103] | 620 nM |
| COc1ccc(-c2ccnc3nc(NC(=O)NCCc4cccnc4)nn23)cc1 [Example 104] | 430 nM |
| COCCCNC(=O)Nc1nc2nccc(-c3ccc(OC)cc3)n2n1 [Example 106] | 510 nM |
| CC(C)COc1cccc(-c2ccnc3nc(NC(=O)NC4CCCCC4)nn23)c1 [Example 108] | 130 nM |
| COc1ccc(-c2ccnc3nc(NC(=O)NCCC(=O)OC(C)(C)C)nn23)cc1 [Example 109] | 110 nM |
| COc1ccc(-c2ccnc3nc(NC(=O)NCC(=O)OC(C)(C)C)nn23)cc1 [Example 110] | 790 nM |
| COc1ccc(-c2ccnc3nc(NC(=O)N[C@@H](Cc4ccccc4)C(=O)OC(C)(C)C)nn23)cc1 [Example 112] | 850 nM |
| O=C(Nc1nc2nccc(-c3cccc(OCc4ccccc4)c3)n2n1)NC1CCCCC1 [Example 115] | 600 nM |
| COc1ccc(-c2ccnc3nc(NC(=O)N[C@H](C(=O)NCCc4ccncc4)C(C)C)nn23)cc1 [Example 116] | 570 nM |
| COc1ccc(-c2ccnc3nc(NC(=O)N[C@@H](C)C(=O)Nc4ccccc4)nn23)cc1 [Example 117] | 190 nM |
| COc1ccc(-c2ccnc3nc(NC(=O)N[C@@H](C)C(=O)N4CCOCC4)nn23)cc1 [Example 118] | 610 nM |
| COc1ccc(-c2ccnc3nc(NC(=O)N[C@@H](C)C(=O)NCc4ccccc4)nn23)cc1 [Example 119] | 210 nM |
| COc1ccc(-c2ccnc3nc(NC(=O)N[C@@H](C)C(=O)NC4CCCCC4)nn23)cc1 [Example 120] | 250 nM |
| COc1ccc(-c2ccnc3nc(NC(=O)N[C@@H](C)C(=O)NCC4CCCCC4)nn23)cc1 [Example 121] | 170 nM |

| SMILES | EC20 (concentration necessary for suppressing 20% of the expression level of MHC class I molecules) |
| --- | --- |
| COC(=O)[C@H](C)NC(=O)[C@H](C)NC(=O)Nc1nc2nccc(-c3ccc(OC)cc3)n2n1 [Example 122] | 340 nM |
| COc1ccc(-c2ccnc3nc(NC(=O)N[C@@H](C)C(=O)N4CCN(C)CC4)nn23)cc1 [Example 123] | 480 nM |
| COc1ccc(-c2ccnc3nc(NC(=O)N[C@@H](C)C(=O)NCc4ccccn4)nn23)cc1 [Example 124] | 210 nM |
| COc1ccc(-c2ccnc3nc(NC(=O)N[C@@H](C)C(=O)NCCN4CCCCC4)nn23)cc1.Cl [Example 125] | 820 nM |
| COC(=O)[C@@H](C)NC(=O)Nc1nc2nccc(-c3ccc(OC)cc3)n2n1 [Example 126] | 320 nM |
| COc1ccc(-c2ccnc3nc(NC(=O)N[C@@H](C)CCc4ccccc4)nn23)cc1 [Example 127] | 80 nM |
| CCC(CC)NC(=O)Nc1nc2nccc(-c3ccc(OC)cc3)n2n1 [Example 128] | 540 nM |
| COc1ccc(-c2ccnc3nc(NC(=O)N[C@@H](C)c4ccc(Br)cc4)nn23)cc1 [Example 129] | 180 nM |
| CC[C@H](NC(=O)Nc1nc2nccc(-c3ccc(OC)cc3)n2n1)c1ccccc1 [Example 130] | 130 nM |
| COc1ccc(-c2ccnc3nc(NC(=O)N[C@@H](C)c4ccc(OC)cc4)nn23)cc1 [Example 133] | 190 nM |
| COc1ccc(-c2ccnc3nc(NC(=O)N[C@H]4CCCc5ccccc54)nn23)cc1 [Example 134] | 50 nM |
| CCOC(=O)N1CCC(NC(=O)Nc2nc3nccc(-c4ccc(OC)cc4)n3n2)CC1 [Example 138] | 150 nM |
| COc1ccc(-c2ccnc3nc(NC(=O)N[C@@H](C)c4ccc([N+](=O)[O-])cc4)nn23)cc1 [Example 139] | 130 nM |
| COc1ccc(-c2ccnc3nc(NC(=O)NC4C5CC6CC(C5)CC4C6)nn23)cc1 (stereo not drawn) [Example 143] | 740 nM |
| COc1ccc(-c2ccnc3nc(NC(=O)NCC(=O)Nc4ccccc4)nn23)cc1 [Example 144] | 460 nM |
| CC[C@H](NC(=O)Nc1nc2nccc(-c3ccc(OC)cc3)n2n1)C(=O)Nc1ccccc1 [Example 148] | 260 nM |
| CC[C@H](NC(=O)Nc1nc2nccc(-c3ccc(OC)cc3)n2n1)C(=O)N1CCOCC1 [Example 149] | 630 nM |
| CC[C@H](NC(=O)Nc1nc2nccc(-c3ccc(OC)cc3)n2n1)C(=O)NC(C)C(=O)OC (stereo partly drawn) [Example 150] | 710 nM |
| CCC[C@H](NC(=O)Nc1nc2nccc(-c3ccc(OC)cc3)n2n1)C(=O)Nc1ccccc1 [Example 151] | 220 nM |
| CCC[C@H](NC(=O)Nc1nc2nccc(-c3ccc(OC)cc3)n2n1)C(=O)N1CCOCC1 [Example 152] | 780 nM |
| COc1ccc(-c2ccnc3nc(NC(=O)NCCC(=O)Nc4ccccc4)nn23)cc1 [Example 156] | 50 nM |
| C[C@H](NC(=O)Nc1nc2nccc(-c3cccs3)n2n1)c1ccccc1 [Example 165] | 300 nM |
| COC(=O)C1CCC(NC(=O)Nc2nc3nccc(-c4ccc(OC)cc4)n3n2)CC1 (stereo not drawn) [Example 167] | 200 nM |
| COC(=O)C1CCCC(NC(=O)Nc2nc3nccc(-c4ccc(OC)cc4)n3n2)C1 (stereo not drawn) [Example 168] | 670 nM |
| COc1ccc(-c2ccnc3nc(NC(=O)NC4CCC(C(=O)N(C)C)CC4)nn23)cc1 (stereo not drawn) [Example 169] | 660 nM |
| O=C(Nc1nc2nccc(-c3cccc(OCc4cccnc4)c3)n2n1)NC1CCCCC1 [Example 170] | 250 nM |
| O=C(Nc1nc2nccc(-c3cccc(OCc4ccncc4)c3)n2n1)NC1CCCCC1 [Example 171] | 290 nM |
